system: HIV-1 viral population of patient sample 848; assay: Resistance test vector phenotypic drug susceptibility assay of patient sample 848; format: cell-based; conditions: mixed viral population in sample 848, FIG. 3
Source text: Patient-derived segment(s) corresponding to the HIV protease and reverse transcriptase coding regions were amplified by the reverse transcription-polymerase chain reaction method (RT-PCR) using viral RNA isolated from viral particles present in the plasma or serum of HIV-infected individuals as follows. Viral RNA was isolated from the plasma or serum using oligo-dT magnetic beads (Dynal Biotech, Oslo, Norway), followed by washing and elution of viral RNA. The RT-PCR protocol was divided into two steps. A retroviral reverse transcriptase (e.g. Moloney MuLV reverse transcriptase (Roche Molecular Systems, Inc., Branchburg, N.J.; Invitrogen, Carlsbad, Calif.), or avian myeloblastosis virus (AMV) reverse transcriptase (Roche Molecular Systems, Inc., Branchburg, N.J.), or) was used to copy viral RNA into cDNA. The cDNA was then amplified using a thermostable DNA polymerase (e.g. Taq (Roche Molecular Systems, Inc., Branchburg, N.J.), Tth (Roche Molecular Systems, Inc., Branchburg, N.J.), PRIMEZYME™ (isolated from Thermus brockianus, Biometra, Gottingen, Germany)) or a combination of thermostable polymerases as described for the performance of “long PCR” Barnes, W. M., 1994, Proc. Natl. Acad. Sci, USA 91, 2216-20) (e.g. Expand High Fidelity PCR System (Taq+Pwo), (Boehringer Mannheim. Indianapolis, Ind.); GENEAMP XL™ PCR kit (Tth+Vent), (Roche Molecular Systems, Inc., Branchburg, N.J.); or ADVANTAGE II®, Clontech, Palo Alto, Calif.)
Resistance test vectors incorporating the “test” patient-derived segments were constructed as described in U.S. Pat. No. 5,837,464 using an amplified DNA product of 1.5 kB prepared by RT-PCR using viral RNA as a template and oligonucleotides PDS Apa, PDS Age, PDS PCR6, Apa-gen, Apa-c, Apa-f, Age-gen, Age-a, RT-ad, RT-b, RT-c, RT-f, and/or RT-g as primers, followed by digestion with ApaI and AgeI or the isoschizomer PinA1. To ensure that the plasmid DNA corresponding to the resultant fitness test vector comprises a representative sample of the HIV viral quasi-species present in the serum of a given patient, many (>250) independent E. coli transformants obtained in the construction of a given fitness test vector are pooled and used for the preparation of plasmid DNA.
A packaging expression vector encoding an amphotrophic MuLV 4070A env gene product enables production in a resistance test vector host cell of resistance test vector viral particles which can efficiently infect human target cells. Resistance test vectors encoding all HIV genes with the exception of env were used to transfect a packaging host cell (once transfected the host cell is referred to as a fitness test vector host cell). The packaging expression vector which encodes the amphotrophic MuLV 4070A env gene product is used with the resistance test vector to enable production in the resistance test vector host cell of infectious pseudotyped resistance test vector viral particles.
Drug resistance tests performed with resistance test vectors were carried out using packaging host and target host cells consisting of the human embryonic kidney cell line 293. See U.S. Pat. No. 5,837,464.
Resistance tests were carried out with resistance test vectors using two host cell types. Resistance test vector viral particles were produced by a first host cell (the resistance test vector host cell) that was prepared by transfecting a packaging host cell with the resistance test vector and the packaging expression vector. The resistance test vector viral particles were then used to infect a second host cell (the target host cell) in which the expression of the indicator gene is measured.
The resistance test vectors containing a functional luciferase gene cassette were constructed as described above and host cells were transfected with the resistance test vector DNA. […]

SMILES | phenotypic resistance score of the viral population
CC(C)CN(C[C@@H](O)[C@H](Cc1ccccc1)NC(=O)O[C@H]1CCOC1)S(=O)(=O)c1ccc(N)cc1 [AMP, amprenavir] | resistant
CC(C)(C)NC(=O)[C@@H]1CN(Cc2cccnc2)CCN1C[C@@H](O)C[C@@H](Cc1ccccc1)C(=O)N[C@H]1c2ccccc2C[C@H]1O [IDV, indinavir] | resistant
Cc1c(O)cccc1C(=O)N[C@@H](CSc1ccccc1)[C@H](O)CN1C[C@H]2CCCC[C@H]2C[C@H]1C(=O)NC(C)(C)C [NFV, nelfinavir] | resistant
CC(C)(C)NC(=O)[C@@H]1C[C@@H]2CCCC[C@@H]2CN1C[C@@H](O)[C@H](Cc1ccccc1)NC(=O)[C@H](CC(N)=O)NC(=O)c1ccc2ccccc2n1 [SQV, saquinavir] | resistant
CC(C)c1nc(CN(C)C(=O)N[C@H](C(=O)N[C@@H](Cc2ccccc2)C[C@H](O)[C@H](Cc2ccccc2)NC(=O)OCc2cncs2)C(C)C)cs1 [RTV, ritonavir] | resistant
Cc1cccc(C)c1OCC(=O)N[C@@H](Cc1ccccc1)[C@@H](O)C[C@H](Cc1ccccc1)NC(=O)[C@H](C(C)C)N1CCCNC1=O [LPV, lopinavir] | resistant

From US20090087841A1, “METHODS AND COMPOSITIONS FOR D[…] HIV-1 TO PROTEASE INHIBITORS” (Monogram Biosciences, Inc., priority 2005, published 2009)
